Measurements taken from patent US4340609A, “Amidinourea derivative veterinary compositions for suppression of parasitemia” (William H. Rorer, Inc., priority 1980, dated 1982).
Counter-ions that a name gives are not always drawn. Like-named read-outs stand apart in the source and are kept apart here.

Key:
LD50 in mice = settings: mouse, in vivo
plasmodium berghei = assay: suppression of parasitemia in mice infected with plasmodium berghei; assay type: in vivo; settings: for ED50: Plasmodium berghei, sc; for ED50 / Mean % Parasitemia / Mean % Suppression / % died: mice
Protocol: Five representative amidinoureas were tested in mice infected with plasmodium berghei. The five compounds tested are the following:
Groups of 10 mice each were used in seven doses totaling 70 mice per compound. The protozoal infection was induced by intraperitoneal injection of 5,000,000 parasitized blood cells from a donor. The compound was administered subcutaneously in doses ranging from 0.15 to 10 mg. per kg., suspended on 0.5% methacel solution (doses expressed as base). The compound was repeatedly injected on the day of inoculation (day 1), day 2 and day 3. Blood smears were performed on days 4, 5, 6 and 10.
Untreated control but infected mice developed fulminating parasitemia of as high as 35% on day 10 and deaths occurred from day 12 to 14.

[1] = s.c., 1.0 mg/kg on days 1-3, 4th day
[2] = s.c., 1.0 mg/kg on days 1-3, 5th day
[3] = s.c., 1.0 mg/kg on days 1-3, 6th day
[4] = s.c., 1.0 mg/kg on days 1-3, 10th day
[5] = s.c., 2.0 mg/kg on days 1-3, 4th day
[6] = s.c., 2.0 mg/kg on days 1-3, 5th day
[7] = s.c., 2.0 mg/kg on days 1-3, 6th day
[8] = s.c., 2.0 mg/kg on days 1-3, 10th day
[9] = s.c., 10.0 mg/kg on days 1-3, 4th day
[10] = s.c., 10.0 mg/kg on days 1-3, 5th day
[11] = s.c., 10.0 mg/kg on days 1-3, 6th day
[12] = s.c., 10.0 mg/kg on days 1-3, 10th day
[13] = s.c., .15 mg/kg on days 1-3, 4th day
[14] = s.c., .15 mg/kg on days 1-3, 5th day
[15] = s.c., .15 mg/kg on days 1-3, 6th day
[16] = s.c., .15 mg/kg on days 1-3, 10th day
[17] = s.c., .20 mg/kg on days 1-3, 4th day
[18] = s.c., .20 mg/kg on days 1-3, 5th day
[19] = s.c., .20 mg/kg on days 1-3, 6th day
[20] = s.c., .20 mg/kg on days 1-3, 10th day
[21] = s.c., .30 mg/kg on days 1-3, 4th day
[22] = s.c., .30 mg/kg on days 1-3, 5th day
[23] = s.c., .30 mg/kg on days 1-3, 6th day
[24] = s.c., .30 mg/kg on days 1-3, 10th day
[25] = s.c., .50 mg/kg on days 1-3, 4th day
[26] = s.c., .50 mg/kg on days 1-3, 5th day
[27] = s.c., .50 mg/kg on days 1-3, 6th day
[28] = s.c., .50 mg/kg on days 1-3, 10th day

CNC(=N)NC(=O)Nc1c(C)cccc1Br [Compound B, 1-(2-bromo-6-methylphenyl)-3-methylamidino)urea hydrochloride]
LD50 (LD50 in mice): 82 to 135 mg/kg
ED50 (plasmodium berghei; 96 h, s.c., levels of parasitemia, 4th day, read-out: SED50 (Suppressant Effective Dose50)): 1.87 mg/kg
ED50 (plasmodium berghei; 120 h, s.c., levels of parasitemia, 5th day, read-out: SED50 (Suppressant Effective Dose50)): 1.87 mg/kg
ED50 (plasmodium berghei; 144 h, s.c., levels of parasitemia, 6th day, read-out: SED50 (Suppressant Effective Dose50)): 1.66 mg/kg
ED50 (plasmodium berghei; 240 h, s.c., levels of parasitemia, 10th day, read-out: SED50 (Suppressant Effective Dose50)): 1.87 mg/kg
ED50 (plasmodium berghei; day 4 to day 10, read-out: HIGHEST SED50): 1.87 mg/kg
ED50 (plasmodium berghei; day 4 to day 10, read-out: LOWEST SED50): 1.66 mg/kg
FACTOR (HIGHEST SED50 ÷ LOWEST SED50) (plasmodium berghei; factor of change, day 4 to day 10, duration of action): 1.12
Mean % Parasitemia (plasmodium berghei; [1]): 3.75%
Mean % Suppression (plasmodium berghei; [1]): 28.6%
Mean % Parasitemia (plasmodium berghei; [2]): 4.30%
Mean % Suppression (plasmodium berghei; [2]): 41.1%
Mean % Parasitemia (plasmodium berghei; [3]): 5.10%
Mean % Suppression (plasmodium berghei; [3]): 45.2%
Mean % Parasitemia (plasmodium berghei; [4]): 23.2%
Mean % Suppression (plasmodium berghei; [4]): 34.6%
% died (plasmodium berghei; s.c., 1.0 mg/kg on days 1-3, 12th day): 0%
% died (plasmodium berghei; s.c., 1.0 mg/kg on days 1-3, 13th day): 20%
% died (plasmodium berghei; s.c., 1.0 mg/kg on days 1-3, 14th day): 20%
Mean % Parasitemia (plasmodium berghei; [5]): 2.50%
Mean % Suppression (plasmodium berghei; [5]): 52.3%
Mean % Parasitemia (plasmodium berghei; [6]): 3.40%
Mean % Suppression (plasmodium berghei; [6]): 53.2%
Mean % Parasitemia (plasmodium berghei; [7]): 4.50%
Mean % Suppression (plasmodium berghei; [7]): 51.6%
Mean % Parasitemia (plasmodium berghei; [8]): 19.8%
Mean % Suppression (plasmodium berghei; [8]): 44.2%
% died (plasmodium berghei; s.c., 2.0 mg/kg on days 1-3, 12th day): 0%
% died (plasmodium berghei; s.c., 2.0 mg/kg on days 1-3, 13th day): 0%
% died (plasmodium berghei; s.c., 2.0 mg/kg on days 1-3, 14th day): 20%
Mean % Parasitemia (plasmodium berghei; [9]): 0.25%
Mean % Suppression (plasmodium berghei; [9]): 96.2%
Mean % Parasitemia (plasmodium berghei; [10]): 0.50%
Mean % Suppression (plasmodium berghei; [10]): 94.0%
Mean % Parasitemia (plasmodium berghei; [11]): 0.05%
Mean % Suppression (plasmodium berghei; [11]): 99.6%
Mean % Parasitemia (plasmodium berghei; [12]): 0%
Mean % Suppression (plasmodium berghei; [12]): 100.0%
% died (plasmodium berghei; s.c., 10.0 mg/kg on days 1-3, 12th day): 0%
% died (plasmodium berghei; s.c., 10.0 mg/kg on days 1-3, 13th day): 0%
% died (plasmodium berghei; s.c., 10.0 mg/kg on days 1-3, 14th day): 0%
Mean % Parasitemia (plasmodium berghei; [13]): 5.00%
Mean % Suppression (plasmodium berghei; [13]): 4.8%
Mean % Parasitemia (plasmodium berghei; [14]): 7.00%
Mean % Suppression (plasmodium berghei; [14]): 4.1%
Mean % Parasitemia (plasmodium berghei; [15]): 7.80%
Mean % Suppression (plasmodium berghei; [15]): 16.1%
Mean % Parasitemia (plasmodium berghei; [16]): 34.1%
Mean % Suppression (plasmodium berghei; [16]): 3.9%
% died (plasmodium berghei; s.c., .15 mg/kg on days 1-3, 12th day): 20%
% died (plasmodium berghei; s.c., .15 mg/kg on days 1-3, 13th day): 20%
% died (plasmodium berghei; s.c., .15 mg/kg on days 1-3, 14th day): 20%
Mean % Parasitemia (plasmodium berghei; [17]): 5.00%
Mean % Suppression (plasmodium berghei; [17]): 4.8%
Mean % Parasitemia (plasmodium berghei; [18]): 6.90%
Mean % Suppression (plasmodium berghei; [18]): 5.5%
Mean % Parasitemia (plasmodium berghei; [19]): 7.40%
Mean % Suppression (plasmodium berghei; [19]): 20.4%
Mean % Parasitemia (plasmodium berghei; [20]): 30.2%
Mean % Suppression (plasmodium berghei; [20]): 14.9%
% died (plasmodium berghei; s.c., .20 mg/kg on days 1-3, 12th day): 0%
% died (plasmodium berghei; s.c., .20 mg/kg on days 1-3, 13th day): 20%
% died (plasmodium berghei; s.c., .20 mg/kg on days 1-3, 14th day): 40%
Mean % Parasitemia (plasmodium berghei; [21]): 4.00%
Mean % Suppression (plasmodium berghei; [21]): 23.8%
Mean % Parasitemia (plasmodium berghei; [22]): 6.60%
Mean % Suppression (plasmodium berghei; [22]): 9.6%
Mean % Parasitemia (plasmodium berghei; [23]): 6.90%
Mean % Suppression (plasmodium berghei; [23]): 25.8%
Mean % Parasitemia (plasmodium berghei; [24]): 29.1%
Mean % Suppression (plasmodium berghei; [24]): 18.0%
% died (plasmodium berghei; s.c., .30 mg/kg on days 1-3, 12th day): 0%
% died (plasmodium berghei; s.c., .30 mg/kg on days 1-3, 13th day): 0%
% died (plasmodium berghei; s.c., .30 mg/kg on days 1-3, 14th day): 40%
Mean % Parasitemia (plasmodium berghei; [25]): 4.00%
Mean % Suppression (plasmodium berghei; [25]): 23.8%
Mean % Parasitemia (plasmodium berghei; [26]): 5.10%
Mean % Suppression (plasmodium berghei; [26]): 30.1%
Mean % Parasitemia (plasmodium berghei; [27]): 5.80%
Mean % Suppression (plasmodium berghei; [27]): 37.6%
Mean % Parasitemia (plasmodium berghei; [28]): 26.7%
Mean % Suppression (plasmodium berghei; [28]): 24.8%
% died (plasmodium berghei; s.c., .50 mg/kg on days 1-3, 12th day): 20%
% died (plasmodium berghei; s.c., .50 mg/kg on days 1-3, 13th day): 40%
% died (plasmodium berghei; s.c., .50 mg/kg on days 1-3, 14th day): 60%
